SMILES strings stand for the structures.

This experiment addresses T1, Full length human recombinant HDAC6 protein (Homo sapiens, UniProt Q9UBN7).
T1 sequence (Q9UBN7 1-1215): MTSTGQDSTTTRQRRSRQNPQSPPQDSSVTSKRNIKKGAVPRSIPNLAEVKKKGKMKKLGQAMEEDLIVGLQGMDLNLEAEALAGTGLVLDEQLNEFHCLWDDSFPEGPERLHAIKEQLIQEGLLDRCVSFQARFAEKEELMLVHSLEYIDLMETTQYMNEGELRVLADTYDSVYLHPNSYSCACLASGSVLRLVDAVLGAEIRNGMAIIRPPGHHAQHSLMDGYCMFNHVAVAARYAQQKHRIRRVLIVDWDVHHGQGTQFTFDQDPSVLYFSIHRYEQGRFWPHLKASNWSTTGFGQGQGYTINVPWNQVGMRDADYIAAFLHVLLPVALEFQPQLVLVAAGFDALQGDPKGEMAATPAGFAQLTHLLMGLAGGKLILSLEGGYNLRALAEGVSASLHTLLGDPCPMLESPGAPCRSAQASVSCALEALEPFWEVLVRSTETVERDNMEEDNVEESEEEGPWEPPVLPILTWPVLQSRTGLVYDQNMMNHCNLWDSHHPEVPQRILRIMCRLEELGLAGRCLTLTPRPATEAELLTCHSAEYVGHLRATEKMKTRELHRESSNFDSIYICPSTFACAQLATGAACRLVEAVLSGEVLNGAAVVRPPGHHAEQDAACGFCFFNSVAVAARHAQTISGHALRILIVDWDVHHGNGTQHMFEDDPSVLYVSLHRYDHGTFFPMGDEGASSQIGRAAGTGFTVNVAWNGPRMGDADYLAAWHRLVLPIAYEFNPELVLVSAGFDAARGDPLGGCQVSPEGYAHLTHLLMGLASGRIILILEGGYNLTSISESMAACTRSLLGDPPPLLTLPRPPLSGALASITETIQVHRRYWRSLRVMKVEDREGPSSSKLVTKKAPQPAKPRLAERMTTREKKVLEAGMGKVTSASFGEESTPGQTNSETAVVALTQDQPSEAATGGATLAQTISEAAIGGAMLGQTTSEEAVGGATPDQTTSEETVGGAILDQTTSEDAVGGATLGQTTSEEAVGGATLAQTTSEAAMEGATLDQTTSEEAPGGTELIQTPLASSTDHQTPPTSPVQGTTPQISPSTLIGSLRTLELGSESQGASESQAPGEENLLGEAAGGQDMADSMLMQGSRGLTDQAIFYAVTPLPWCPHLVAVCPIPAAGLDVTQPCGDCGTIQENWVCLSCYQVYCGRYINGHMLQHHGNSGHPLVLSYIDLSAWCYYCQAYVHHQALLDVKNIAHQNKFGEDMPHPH
The experiment is described as follows: In vitro histone deacetylase assay: enzymatic HDAC6 electrophoretic mobility shift assay. It is filed as biochemical. The note with it: 1 nM enzyme, 2 μM peptide substrate RHKK(Ac)-NH2, 25° C., 12 concentrations; read-out: Inhibitory Concentration (IC50) Values against HDAC6, Activity Range. On the technique in general: A gel shift assay detects complexes by their altered migration in electrophoresis.

As for `CC(C)[C@@H]1COc2cc(C(=O)NO)ccc2CN1C(=O)C1(C)CCC1` [(R)-N-hydroxy-3-isopropyl-4-(1-methylcyclobutane-1-carbonyl)-2,3,4,5-tetrahydrobenzo[f][1,4]oxazepine-8-carboxamide], the IC50 was above 500 nM.
As for `C[C@@H]1COc2cc(C(=O)NO)ccc2CN1C(=O)C1(C)CCC1` [(R)-N-hydroxy-3-methyl-4-(1-methylcyclobutane-1-carbonyl)-2,3,4,5-tetrahydrobenzo[f][1,4]oxazepine-8-carboxamide], the IC50 fell in the range of 100 to 500 nM.
With `CC1(C(=O)N2Cc3ccc(C(=O)NO)cc3O[C@H](c3ccccc3)C2)CCC1` [(R)-N-hydroxy-4-(1-methylcyclobutane-1-carbonyl)-2-phenyl-2,3,4,5-tetrahydrobenzo[f][1,4]oxazepine-8-carboxamide], the IC50 lay within 100 to 500 nM.
Consider `C[C@@H](C(=O)N1CCOc2cc(C(=O)NO)ccc2C1)c1ccccc1` [(R)-N-hydroxy-4-(2-phenylpropanoyl)-2,3,4,5-tetrahydrobenzo[f][1,4]oxazepine-8-carboxamide], for which the IC50 was above 500 nM.
With `O=C(NO)c1ccc2c(c1)OC[C@H](C(F)(F)F)N(C(=O)C1COC1)C2` [(R)-N-hydroxy-4-(oxetane-3-carbonyl)-3-(trifluoromethyl)-2,3,4,5-tetrahydrobenzo[f][1,4]oxazepine-8-carboxamide], the IC50 was at most 100 nM.
Consider `O=C(NO)c1ccc2c(c1)OCCN(C(=O)[C@@H]1CCCOC1)C2` [(R)-N-hydroxy-4-(tetrahydro-2H-pyran-3-carbonyl)-2,3,4,5-tetrahydrobenzo[f][1,4]oxazepine-8-carboxamide], for which the IC50 is at most 100 nM.
For `O=C(NO)c1ccc2c(c1)OC[C@H](C(F)(F)F)N(C(=O)C1CCOCC1)C2` [(R)-N-hydroxy-4-(tetrahydro-2H-pyran-4-carbonyl)-3-(trifluoromethyl)-2,3,4,5-tetrahydrobenzo[f][1,4]oxazepine-8-carboxamide], the IC50 is at most 100 nM.
Regarding `O=C(NO)c1ccc2c(c1)OCCN(C(=O)[C@@H]1CCOC1)C2` [(R)-N-hydroxy-4-(tetrahydrofuran-3-carbonyl)-2,3,4,5-tetrahydrobenzo[f][1,4]oxazepine-8-carboxamide], the IC50 was at most 100 nM.
Consider `CC(C)[C@@H]1c2ccc(C(=O)NO)cc2OCCN1C(=O)C1COC1` [(R)-N-hydroxy-5-isopropyl-4-(oxetane-3-carbonyl)-2,3,4,5-tetrahydrobenzo[f][1,4]oxazepine-8-carboxamide], for which the IC50 is above 500 nM.
Next, `CC(C)[C@@H]1c2ccc(C(=O)NO)cc2OCCN1C(=O)C1CCOCC1` [(R)-N-hydroxy-5-isopropyl-4-(tetrahydro-2H-pyran-4-carbonyl)-2,3,4,5-tetrahydrobenzo[f][1,4]oxazepine-8-carboxamide]: above 500 nM.
`C[C@@H]1c2cc(C(=O)NO)ccc2OCCN1C(=O)C1(C)CCC1` [(R)-N-hydroxy-5-methyl-4-(1-methylcyclobutane-1-carbonyl)-2,3,4,5-tetrahydrobenzo[f][1,4]oxazepine-7-carboxamide]: the IC50 is at most 100 nM.
As for `C[C@@H]1c2ccc(C(=O)NO)cc2OCCN1C(=O)C1(C)CCC1` [(R)-N-hydroxy-5-methyl-4-(1-methylcyclobutane-1-carbonyl)-2,3,4,5-tetrahydrobenzo[f][1,4]oxazepine-8-carboxamide], the IC50 is above 500 nM.
Next, `C[C@@H]1c2cc(C(=O)NO)ccc2OCCN1C(=O)C1CCOCC1` [(R)-N-hydroxy-5-methyl-4-(tetrahydro-2H-pyran-4-carbonyl)-2,3,4,5-tetrahydrobenzo[f][1,4]oxazepine-7-carboxamide]: at most 100 nM; `C[C@@H]1c2ccc(C(=O)NO)cc2OCCN1C(=O)C1CCOCC1` [(R)-N-hydroxy-5-methyl-4-(tetrahydro-2H-pyran-4-carbonyl)-2,3,4,5-tetrahydrobenzo[f][1,4]oxazepine-8-carboxamide]: above 500 nM; `O=C(NO)c1ccc2c(c1)OC[C@H](Cc1ccccc1)N(C(=O)C1CCOCC1)C2` [(S)-3-benzyl-N-hydroxy-4-(tetrahydro-2H-pyran-4-carbonyl)-2,3,4,5-tetrahydrobenzo[f][1,4]oxazepine-8-carboxamide]: at most 100 nM.
Take `CC[C@H]1COc2cc(C(=O)NO)ccc2CN1C(=O)C1CCOCC1` [(S)-3-ethyl-N-hydroxy-4-(tetrahydro-2H-pyran-4-carbonyl)-2,3,4,5-tetrahydrobenzo[f][1,4]oxazepine-8-carboxamide]: the IC50 is at most 100 nM.
As to `C[C@H]1COc2cc(C(=O)NO)ccc2CN1C(=O)C1CCS(=O)(=O)CC1` [(S)-4-(1,1-dioxidotetrahydro-2H-thiopyran-4-carbonyl)-N-hydroxy-3-methyl-2,3,4,5-tetrahydrobenzo[f][1,4]oxazepine-8-carboxamide], the IC50 was at most 100 nM.
As for `C[C@H]1COc2cc(C(=O)NO)ccc2CN1C(=O)C1CS(=O)(=O)C1` [(S)-4-(1,1-dioxidothietane-3-carbonyl)-N-hydroxy-3-methyl-2,3,4,5-tetrahydrobenzo[f][1,4]oxazepine-8-carboxamide], the IC50 is at most 100 nM.
`CC(=O)N1CCC(C(=O)N2Cc3ccc(C(=O)NO)cc3OC[C@@H]2C)CC1` [(S)-4-(1-acetylpiperidine-4-carbonyl)-N-hydroxy-3-methyl-2,3,4,5-tetrahydrobenzo[f][1,4]oxazepine-8-carboxamide]: the IC50 was at most 100 nM.
On to `C[C@H]1COc2cc(C(=O)NO)ccc2CN1C(=O)C1CCN(C=O)CC1` [(S)-4-(1-formylpiperidine-4-carbonyl)-N-hydroxy-3-methyl-2,3,4,5-tetrahydrobenzo[f][1,4]oxazepine-8-carboxamide], for which the IC50 was at most 100 nM.
Take `C[C@H]1COc2cc(C(=O)NO)ccc2CN1C(=O)c1nc2ccccc2[nH]1` [(S)-4-(1H-benzo[d]imidazole-2-carbonyl)-N-hydroxy-3-methyl-2,3,4,5-tetrahydrobenzo[f][1,4]oxazepine-8-carboxamide]: the IC50 was at most 100 nM.
Next, `CC1(C)C[C@@H]1C(=O)N1CCOc2cc(C(=O)NO)ccc2C1` [(S)-4-(2,2-dimethylcyclopropane-1-carbonyl)-N-hydroxy-2,3,4,5-tetrahydrobenzo[f][1,4]oxazepine-8-carboxamide]: 100 to 500 nM.
Next, `C[C@H]1COc2cc(C(=O)NO)ccc2CN1C(=O)C(C)(C)c1ccc(F)cc1` [(S)-4-(2-(4-fluorophenyl)-2-methylpropanoyl)-N-hydroxy-3-methyl-2,3,4,5-tetrahydrobenzo[f][1,4]oxazepine-8-carboxamide]: at most 100 nM.
Regarding `C[C@H]1COc2cc(C(=O)NO)ccc2CN1C(=O)CCOc1ccc(F)cc1` [(S)-4-(3-(4-fluorophenoxy)propanoyl)-N-hydroxy-3-methyl-2,3,4,5-tetrahydrobenzo[f][1,4]oxazepine-8-carboxamide], the IC50 is at most 100 nM.
`C[C@H]1COc2cc(C(=O)NO)ccc2CN1C(=O)C(C)(C)Cc1ccc(F)cc1` [(S)-4-(3-(4-fluorophenyl)-2,2-dimethylpropanoyl)-N-hydroxy-3-methyl-2,3,4,5-tetrahydrobenzo[f][1,4]oxazepine-8-carboxamide]: the IC50 was at most 100 nM.
Turning to `C[C@H]1COc2cc(C(=O)NO)ccc2CN1C(=O)C1CC(OCc2ccccc2)C1` (stereo partly drawn) [(S)-4-(3-(benzyloxy)cyclobutane-1-carbonyl)-N-hydroxy-3-methyl-2,3,4,5-tetrahydrobenzo[f][1,4]oxazepine-8-carboxamide], the IC50 is at most 100 nM.

Values taken from patent US11891365B2, “3-alkyl-4-amido-bicyclic [4,5,0] hydroxamic acids as HDAC inhibitors” (Valo Health, Inc., priority 2015, dated 2024).
